According to patent US11884670B1, “Pyrido[4′,3′:4,5]pyrrolo[3,2-c][2,7]naphthyridin-10-one compounds as CK2 inhibitors” (KING FAISAL UNIVERSITY, priority 2023, dated 2024):
pIC50: −log10 of the molar value.

Experiments:
[1] = test system: PC3 (prostate); assay: In vitro cytotoxic activity (MTT) assay, PC3; format: cell-based; details: Homo sapiens, Prostate cell; PC3 (prostate) cells, exposed for 96 hours; read-out: IC50, concentration eliciting 50% inhibition of cell proliferation
Experimental: (§1) Compounds 1-16 were screened for their in vitro cytotoxic activity utilizing a 3-(4,5-dimethyl-thiazol-2-yl)-2,5-diphenyltetrazolium bromide (MTT) assay against selected cancer human cell lines consisting of PC3 (prostate), HCT116 (colon), A375 (melanoma), H1299 (lung), MIAPaCa-2 (pancreas), HL60 (leukemia), MCF7 (breast), MDA-MB-231 (breast) (T. Mosmann, J. Immunol. Meth., 1983, 65, 55-63). The cells were cultured at 37° C. in RMPI1640 medium supplemented with 10% fetal bovine serum, 50 IU/mL penicillin, and 50 μg/mL streptomycin in a 5% CO2 incubator. All cells were sub-cultured 3 times/week by trypsinisation. Viable cells were seeded and allowed to adhere for 12 h before a test drug was added in 96-well plates at an initial density of 1.0×10^5 cells/mL. Tumour cell lines were separately exposed to various concentrations of the tested compounds followed by incubation at a temperature of 37° C. during 96 h inside a medium of fresh RMPI 1640. Cells were subsequently incubated at 37° C. using MTT at 0.5 mg/mL during 4 h. After removal of supernatant, formazan crystals were dissolved in isopropanol and the optical density was measured at 570 nm. CX-4945 was used as a positive control.

[2] = test system: HCT116 (colon); assay: In vitro cytotoxic activity (MTT) assay, HCT116; format: cell-based; details: Homo sapiens, HCT-116; HCT116 (colon) cells, exposed for 96 hours; read-out: IC50, concentration eliciting 50% inhibition of cell proliferation
Experimental: as §1

[3] = test system: A375 (melanoma); assay: In vitro cytotoxic activity (MTT) assay, A375; format: cell-based; details: Homo sapiens, A-375; A375 (melanoma) cells, exposed for 96 hours; read-out: IC50, concentration eliciting 50% inhibition of cell proliferation
Experimental: as §1

[4] = test system: H1299 (lung); assay: In vitro cytotoxic activity (MTT) assay, H1299; format: cell-based; details: Homo sapiens, NCI-H1299; H1299 (lung) cells, exposed for 96 hours; read-out: IC50, concentration eliciting 50% inhibition of cell proliferation
Experimental: as §1

[5] = test system: MIAPaCa-2 (pancreas); assay: In vitro cytotoxic activity (MTT) assay, MIAPaCa-2; format: cell-based; details: Homo sapiens, MIA PaCa-2; MIAPaCa-2 (pancreas) cells, exposed for 96 hours; read-out: IC50, concentration eliciting 50% inhibition of cell proliferation
Experimental: as §1

[6] = test system: HL60 (leukemia); assay: In vitro cytotoxic activity (MTT) assay, HL60; format: cell-based; details: Homo sapiens, HL-60; HL60 (leukemia) cells, exposed for 96 hours; read-out: IC50, concentration eliciting 50% inhibition of cell proliferation
Experimental: as §1

[7] = test system: MCF7 (breast); assay: In vitro cytotoxic activity (MTT) assay, MCF7; format: cell-based; details: Homo sapiens; MCF7 (breast) cells, exposed for 96 hours; read-out: IC50, concentration eliciting 50% inhibition of cell proliferation
Experimental: as §1

[8] = test system: MDA-MB-231 (breast); assay: In vitro cytotoxic activity (MTT) assay, MDA-MB-231; format: cell-based; details: Homo sapiens; MDA-MB-231 (breast) cells, exposed for 96 hours; read-out: IC50, concentration eliciting 50% inhibition of cell proliferation
Experimental: as §1

[9] = molecular target: T1, recombinant human CK2 (RRββ-holoenzyme) (Homo sapiens, UniProt P68400); assay: CK2 kinase assay (33P-ATP, substrate peptide RRRDDDSDDD); format: biochemical; details: final ATP concentration 15 μM, 10 min at 30° C.; read-out: protein kinase CK2 IC50
T1 construct: purchased Millipore
Experimental: CK2 Kinase Assay was conducted using the protocol as described in Pierre F. et al; J. Med. Chem. 2011, 54, 635-654. The tested compounds in aqueous solution were added at a volume of 10 μL to a reaction mixture comprising 10 μL of assay dilution buffer (ADB; 20 mM MOPS, pH 7.2, 25 mM β-glycerol phosphate, 5 mM EGTA, 1 mM sodium orthovanadate, and 1 mM dithiothreitol), 10 μL of substrate peptide (RRRDDDSDDD, dissolved in ADB at a concentration of 1 mM), 10 μL of recombinant human CK2 (RRββ-holoenzyme, 25 ng dissolved in ADB; Millipore). Reactions were initiated by the addition of 10 μL of ATP solution (90% 75 mMMgCl2, 75 μM ATP (final ATP concentration: 15 μM) dissolved in ADB; 10% [γ-33P] ATP (stock 1 mCi/100 μL; 3000 Ci/mmol (Perkin-Elmer) and maintained for 10 min at 30° C. The reactions were quenched with 100 μL of 0.75% phosphoric acid and then transferred to and filtered through a phosphor cellulose filter plate (Millipore). After washing each well five times with 0.75% phosphoric acid, the plate was dried under vacuum for 5 min and, following the addition of 15 μL of scintillation fluid to each well, the residual radioactivity was measured using a Wallac […] counter. The IC50 values were derived from eight concentrations of test inhibitors.

T1 sequence (P68400 whole entry): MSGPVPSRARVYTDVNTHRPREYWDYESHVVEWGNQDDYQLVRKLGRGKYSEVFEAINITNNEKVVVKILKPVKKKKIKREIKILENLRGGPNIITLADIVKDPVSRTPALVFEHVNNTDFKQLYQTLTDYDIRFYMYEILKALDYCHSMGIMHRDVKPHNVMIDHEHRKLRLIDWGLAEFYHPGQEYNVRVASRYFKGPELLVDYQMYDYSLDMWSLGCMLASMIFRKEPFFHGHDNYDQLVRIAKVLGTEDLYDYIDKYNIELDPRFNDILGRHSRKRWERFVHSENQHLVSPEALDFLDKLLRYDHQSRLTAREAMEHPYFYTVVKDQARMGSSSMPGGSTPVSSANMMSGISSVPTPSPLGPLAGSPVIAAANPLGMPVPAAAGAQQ
T1 sequence (P67870 whole entry partner): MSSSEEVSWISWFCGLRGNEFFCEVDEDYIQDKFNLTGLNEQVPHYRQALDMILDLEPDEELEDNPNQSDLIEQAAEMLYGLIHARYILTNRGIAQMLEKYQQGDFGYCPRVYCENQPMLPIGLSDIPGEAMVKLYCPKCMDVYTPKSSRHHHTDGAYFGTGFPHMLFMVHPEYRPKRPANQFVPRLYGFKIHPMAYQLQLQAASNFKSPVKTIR

- pIC50 [9]: 7.42
SMILES: O=c1[nH]ccc2c1[nH]c1c3ccncc3c(Nc3cccc(Cl)c3)nc21 [Compound 1, 5-((3-chlorophenyl)amino)-9,11-dihydro-10H-pyrido[4′,3′:4,5]pyrrolo[3,2-c][2,7]naphthyridin-10-one]
- pIC50 [1]: 5.68
- pIC50 [2]: 5.72
- pIC50 [3]: 5.48
- pIC50 [4]: 6.00
- pIC50 [5]: 5.77
- pIC50 [6]: 5.47
- pIC50 [7]: 5.21
- pIC50 [8]: 5.32
